Laboratory results published in BindingDB's records for doi:10.7270/Q2P55M4P (Burnham Center For Chemical Genomics, 2013).

Target: Tumor necrosis factor receptor superfamily member 10B (Homo sapiens, UniProt O14763)
Sequence (O14763 whole entry): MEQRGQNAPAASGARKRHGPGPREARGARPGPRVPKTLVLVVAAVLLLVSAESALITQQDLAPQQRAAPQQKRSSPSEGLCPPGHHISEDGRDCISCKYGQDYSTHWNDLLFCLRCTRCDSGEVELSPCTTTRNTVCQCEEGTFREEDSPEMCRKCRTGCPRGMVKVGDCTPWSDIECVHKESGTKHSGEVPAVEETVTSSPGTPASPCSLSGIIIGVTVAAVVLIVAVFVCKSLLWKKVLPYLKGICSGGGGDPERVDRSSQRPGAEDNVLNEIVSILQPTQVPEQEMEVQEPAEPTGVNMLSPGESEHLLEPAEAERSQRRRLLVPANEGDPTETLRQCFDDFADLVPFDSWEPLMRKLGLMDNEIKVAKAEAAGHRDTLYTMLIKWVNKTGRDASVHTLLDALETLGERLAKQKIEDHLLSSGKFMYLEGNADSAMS

| Compound | EC50 |
| --- | --- |
| CN(C)c1ccc(N=CCC(=O)c2ccco2)cc1 | 7.62 µM |
| O=c1c2ccccc2nc2c3ccccc3cnn12 | > 12.5 µM |
| Cc1ccc(N=CC(C(=O)c2cccs2)C(=O)C(F)(F)F)cc1 (stereo unspecified) | 1.87 µM |
| CCOC(=O)C(c1nc2ccccc2[nH]1)n1c(-c2cccnc2)nc2ccccc21 (stereo unspecified) [2-(1,3-dihydrobenzimidazol-2-ylidene)-2-[2-(3-pyridinyl)-1-benzimidazolyl]acetic acid ethyl ester] | 10.5 µM |
| Cc1cc(N=NCc2ccccc2)nc(NCc2ccccc2)n1 [6-methyl-N2-(phenylmethyl)-N4-[(E)-(phenylmethylidene)amino]pyrimidine-2,4-diamine] | > 12.5 µM |
| O=C(Cc1ccc2ccccc2n1)c1ccc(O)cc1O [(2Z)-1-(2,4-dihydroxyphenyl)-2-(1H-quinolin-2-ylidene)ethanone] | > 12.5 µM |
| COc1cccc(N=CCC(=O)c2ccc(Cl)cc2)c1 [(E)-1-(4-chlorophenyl)-3-(3-methoxyanilino)-2-propen-1-one] | 10.3 µM |
| O=c1[nH]c(N=NCc2ccc3c(c2)OCO3)nc2ccccc12 [MLS000700888] | 10.9 µM |
| COc1ccc(C(C)N=Nc2nncc3ccccc23)cc1 (stereo unspecified) [N-[(E)-1-(4-methoxyphenyl)ethylideneamino]-1-phthalazinamine] | > 12.5 µM |
| COc1ccc(CN=Nc2nc3ccccc3c(=O)n2-c2ccccc2)cc1OC [SMR000174011] | 8.6 µM |
| CCOC(=O)c1ccc(N=CCC(=O)c2ccco2)cc1 [ethyl 4-[[(E)-3-(furan-2-yl)-3-oxoprop-1-enyl]amino]benzoate] | > 12.5 µM |
